Measured values taken from patent US7507743B2, “Substituted 8′-pyridinyl-dihydrospiro-[cycloalkyl]-pyrimido[1,2-a] pyrimidin-6-one and 8′-pyrimidinyl-dihydrospiro-[cycloalkyl]-pyrimido[1,2-a] pyrimidin-6-one derivatives” (Sanofi-Aventis, priority 2003, dated 2009).
Counter-ions that a name gives are not always drawn.

SMILES | melting point [°C]
O=C(CN1c2nc(-c3ccncc3)cc(=O)n2CCC12CC2)c1ccccc1 (as salt: hydrochloride) [compound 2, 1′-(2-Oxo-2-phenylethyl)-8′-pyridin-4-yl-3′,4′-dihydrospiro[cyclopropane-1,2′-pyrimido[1,2-a]pyrimidin]-6′(1′H)-one] | 232 to 234
O=c1cc(-c2ccncc2)nc2n1CCC1(CCCC1)N2C[C@@H](O)c1ccccc1 (as salt: hydrochloride) [compound 3, 1′-[(2S)-2-Hydroxy-2-phenylethyl]-8′-pyridin-4-yl-3′,4′-dihydrospiro-[cyclopentane-1,2′-pyrimido[1,2-a]pyrimidin]-6′(1′H)-one] | 221 to 223
O=C(CN1c2nc(-c3ccncc3)cc(=O)n2CCC12CCCC2)c1ccccc1 (as salt: hydrochloride) [compound 7, 1′-(2-Oxo-2-phenylethyl)-8′-pyridin-4-yl-3′,4′-dihydrospiro[cyclopentane-1,2′-pyrimido[1,2-a]pyrimidin]-6′(1′H)-one] | 161 to 162
O=c1cc(-c2ccncc2)nc2n1CCC1(CCC1)N2C[C@@H](O)c1ccccc1 (as salt: hydrochloride) [compound 8, 1′-[(2S)-2-Hydroxy-2-phenylethyl]-8′-pyridin-4-yl-3′,4′-dihydrospiro-[cyclobutane-1,2′-pyrimido[1,2-a]pyrimidin]-6′(1′H)-one] | 214 to 216
O=C(CN1c2nc(-c3ccncc3)cc(=O)n2CCC12CCC2)c1ccccc1 (as salt: hydrochloride) [compound 9, 1′-(2-Oxo-2-phenylethyl)-8′-pyridin-4-yl-3′,4′-dihydrospiro[cyclobutane-1,2′-pyrimido[1,2-a]pyrimidin]-6′(1′H)-one] | 242 to 244
O=c1cc(-c2ccncc2)nc2n1CCC1(CCC1)N2C[C@H](O)c1ccccc1 (as salt: hydrochloride) [compound 13, 1′-[(2R)-2-Hydroxy-2-phenylethyl]-8′-pyridin-4-yl-3′,4′-dihydrospiro-[cyclobutane-1,2′-pyrimido[1,2-a]pyrimidin]-6′(1′H)-one] | 218 to 220
O=c1cc(-c2ccncc2)nc2n1CCC1(CCCC1)N2C[C@H](O)c1ccccc1 (as salt: hydrochloride) [compound 15, 1′-[(2R)-2-Hydroxy-2-phenylethyl]-8′-pyridin-4-yl-3′,4′-dihydrospiro-[cyclopentane-1,2′-pyrimido[1,2-a]pyrimidin]-6′(1′H)-one] | 221 to 222
O=c1cc(-c2ccncc2)nc2n1CCC1(CC1)N2Cc1ccccc1 (as salt: hydrochloride) [compound 17, 1′-(phenylmethyl)-8′-pyridin-4-yl-3′,4′-dihydrospiro-[cyclopropane-1,2′-pyrimido[1,2-a]pyrimidin]-6′(1′H)-one] | 233 to 235
O=c1cc(-c2ccncc2)nc2n1CCC1(CCC1)N2Cc1ccccc1 (as salt: hydrochloride) [compound 18, 1′-(phenylmethyl)-8′-pyridin-4-yl-3′,4′-dihydrospiro-[cyclobutane-1,2′-pyrimido[1,2-a]pyrimidin]-6′(1′H)-one] | 213 to 215
O=c1cc(-c2ccncc2)nc2n1CCC1(CCCC1)N2Cc1ccccc1 (as salt: hydrochloride) [compound 19, 1′-(phenylmethyl)-8′-pyridin-4-yl-3′,4′-dihydrospiro-[cyclopentane-1,2′-pyrimido[1,2-a]pyrimidin]-6′(1′H)-one] | 227 to 228
O=c1cc(-c2ccncc2)nc2n1CCC1(CCCC1)N2CCc1ccccc1 (as salt: hydrochloride) [compound 20, 1′-(phenylethyl)-8′-pyridin-4-yl-3′,4′-dihydrospiro-[cyclopentane-1,2′-pyrimido[1,2-a]pyrimidin]-6′(1′H)-one] | 208 to 210
O=c1cc(-c2ccncc2)nc2n1CCC1(CCC1)N2CCc1ccccc1 (as salt: hydrochloride) [compound 21, 1′-(phenylethyl)-8′-pyridin-4-yl-3′,4′-dihydrospiro-[cyclobutane-1,2′-pyrimido[1,2-a]pyrimidin]-6′(1′H)-one] | 210 to 211
O=c1cc(-c2ccncc2)nc2n1CCC1(CC1)N2CCc1ccccc1 (as salt: hydrochloride) [compound 22, 1′-(phenylethyl)-8′-pyridin-4-yl-3′,4′-dihydrospiro-[cyclopropane-1,2′-pyrimido[1,2-a]pyrimidin]-6′(1′H)-one] | 224 to 225
O=c1cc(-c2ccncc2)nc2n1CCC1(CC1)N2C[C@@H](O)c1ccccc1 (as salt: hydrochloride) [compound No. 1, 1′-[(2S)-2-Hydroxy-2-phenylethyl]-8′-pyridin-4-yl-3′,4′-dihydrospiro[cyclopropane-1,2′-pyrimido[1,2-a]pyrimidin]-6′(1′H)-one] | 219 to 221
O=c1cc(-c2ccncn2)nc2n1CCC1(CCCC1)N2C[C@@H](O)c1ccccc1 [compound 4, 1′-[(2S)-2-Hydroxy-2-phenylethyl]-8′-pyrimidin-4-yl-3′,4′-dihydrospiro-[cyclopentane-1,2′-pyrimido[1,2-a]pyrimidin]-6′(1′H)-one] | 157 to 158
O=c1cc(-c2ccncn2)nc2n1CCC1(CCCC1)N2C[C@H](O)c1ccccc1 [compound 5, 1′-[(2R)-2-Hydroxy-2-phenylethyl]-8′-pyrimidin-4-yl-3′,4′-dihydrospiro-[cyclopentane-1,2′-pyrimido[1,2-a]pyrimidin]-6′(1′H)-one] | 155 to 156
O=C(CN1c2nc(-c3ccncn3)cc(=O)n2CCC12CCCC2)c1ccccc1 [compound 6, 1′-[2-Oxo-2-phenylethyl]-8′-pyrimidin-4-yl-3′,4′-dihydrospiro-[cyclopentane-1,2′-pyrimido[1,2-a]pyrimidin]-6′(1′H)-one] | 194 to 196
O=c1cc(-c2ccncn2)nc2n1CCC1(CCC1)N2C[C@@H](O)c1ccccc1 [compound 11, 1′-[(2S)-2-Hydroxy-2-phenylethyl]-8′-pyrimidin-4-yl-3′,4′-dihydrospiro-[cyclobutane-1,2′-pyrimido[1,2-a]pyrimidin]-6′(1′H)-one] | 186 to 187
O=c1cc(-c2ccncn2)nc2n1CCC1(CCC1)N2C[C@H](O)c1ccccc1 [compound 12, 1′-[(2R)-2-Hydroxy-2-phenylethyl]-8′-pyrimidin-4-yl-3′,4′-dihydrospiro-[cyclobutane-1,2′-pyrimido[1,2-a]pyrimidin]-6′(1′H)-one] | 182 to 184
O=c1cc(-c2ccncn2)nc2n1CCC1(CCC1)N2Cc1ccccc1 [compound 14, 1′-(phenylmethyl)-8′-pyrimidin-4-yl-3′,4′-dihydrospiro-[cyclobutane-1,2′-pyrimido[1,2-a]pyrimidin]-6′(1′H)-one] | 149 to 150
O=c1cc(-c2ccncn2)nc2n1CCC1(CCCC1)N2Cc1ccccc1 [compound 16, 1′-(phenylmethyl)-8′-pyrimidin-4-yl-3′,4′-dihydrospiro-[cyclopentane-1,2′-pyrimido[1,2-a]pyrimidin]-6′(1′H)-one] | 191 to 193
O=c1cc(-c2ccncn2)nc2n1CCC1(CCC1)N2CCc1ccccc1 [compound 23, 1′-(phenylethyl)-8′-pyrimidin-4-yl-3′,4′-dihydrospiro-[cyclobutane-1,2′-pyrimido[1,2-a]pyrimidin]-6′(1′H)-one] | 116 to 167
O=c1cc(-c2ccncn2)nc2n1CCC1(CCCC1)N2CCc1ccccc1 [compound 24, 1′-(phenylethyl)-8′-pyrimidin-4-yl-3′,4′-dihydrospiro-[cyclopentane-1,2′-pyrimido[1,2-a]pyrimidin]-6′(1′H)-one] | 190 to 191
O=C(CN1c2nc(-c3ccncn3)cc(=O)n2CCC12CCC2)c1ccccc1 [compound No. 10, 1′-(2-Oxo-2-phenylethyl)-8′-pyrimidin-4-yl-3′,4′-dihydrospiro[cyclobutane-1,2′-pyrimido[1,2-a]pyrimidine]-6′(1′H)-one] | 207 to 208
